Experimental data: patent publication US8470889B2 (TRT Pharma Inc., priority 2008, dated 2013)
Where a chain is given by its changes, count along the chain named.

Key:
H874Y mutated AR = target: T1, H874Y mutated AR (Homo sapiens, UniProt P10275, H875Y); test: Luciferase assay for AR transactivation, H874Y AR, PC-3 cells; assay type: cell-based; conditions: test compound 1 μM, 0.1 nM DHT
T1 sequence (P10275 1-920 H875Y): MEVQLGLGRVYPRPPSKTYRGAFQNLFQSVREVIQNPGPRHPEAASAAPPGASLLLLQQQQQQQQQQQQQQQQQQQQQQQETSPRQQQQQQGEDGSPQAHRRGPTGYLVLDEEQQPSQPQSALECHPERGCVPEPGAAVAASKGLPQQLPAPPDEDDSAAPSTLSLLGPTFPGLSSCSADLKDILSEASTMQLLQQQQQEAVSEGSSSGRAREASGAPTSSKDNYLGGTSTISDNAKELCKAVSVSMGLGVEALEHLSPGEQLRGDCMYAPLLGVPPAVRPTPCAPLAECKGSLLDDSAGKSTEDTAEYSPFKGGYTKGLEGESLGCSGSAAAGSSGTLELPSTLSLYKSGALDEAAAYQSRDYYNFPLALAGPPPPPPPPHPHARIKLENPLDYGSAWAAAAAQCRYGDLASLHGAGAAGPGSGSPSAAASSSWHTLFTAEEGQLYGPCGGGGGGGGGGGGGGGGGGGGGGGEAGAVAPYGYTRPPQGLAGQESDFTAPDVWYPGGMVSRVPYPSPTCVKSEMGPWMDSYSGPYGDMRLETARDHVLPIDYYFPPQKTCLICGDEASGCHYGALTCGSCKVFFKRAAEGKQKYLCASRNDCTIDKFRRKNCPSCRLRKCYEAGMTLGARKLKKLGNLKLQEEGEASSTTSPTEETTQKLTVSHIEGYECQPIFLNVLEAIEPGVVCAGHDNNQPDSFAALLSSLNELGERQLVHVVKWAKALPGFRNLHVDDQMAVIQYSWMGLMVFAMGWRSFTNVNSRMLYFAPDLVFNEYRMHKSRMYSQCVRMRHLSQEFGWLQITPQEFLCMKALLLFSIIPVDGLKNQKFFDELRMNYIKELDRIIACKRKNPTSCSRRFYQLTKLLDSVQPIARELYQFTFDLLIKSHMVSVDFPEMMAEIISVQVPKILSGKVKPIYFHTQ
Experimental: (§1) PC-3 cells were transiently transfected with pCMV-MMTV-Luc, Renilla null luciferase and AR expressing plasmids. The cells were treated with 0.1 nM DHT with and without test compound for 24 hr. Relative luciferase activity was determined by dual luciferase assay kit (Promega), standardized to Renilla luciferase control and normalized to 0.1 nM DHT without test compound (100%).
(§2) After 16 h, the cells were treated with 0.1 nM of DHT and test compounds at the designated concentration. After further 24 h, the cells were lysed in 100 μL/well passive lysis buffer, and 20 μL of the cell lysates was used for detection of the luciferase activity using Dual Luciferase Assay System (Promega). All experiments were run in triplicate. Relative luciferase activity is determined as the ratio of inducible firefly luciferase luminescence divided by the luminescence of the renilla luciferase control normalized to 0.1 nM DHT without test compounds.
(§3) The potency of antagonistic activity: ++>+.

wild-type human AR = target: T2, wild-type human AR (Homo sapiens, UniProt P10275); test: Luciferase assay for AR transactivation, wild-type AR, PC-3 cells; assay type: cell-based; design: Antiandrogenic activity evaluated by luciferase assay in PC-3 cells WT: key to the marks not given beside the values; conditions: test compound 1 μM, 0.1 nM DHT
T2 construct: utilizing plasmid expressing a full length of AR; expressed in transfected cells; host or cells: PC-3 cells, plasmid pCMV-AR-wt
T2 sequence (P10275 1-920): T1 sequence (P10275 1-920 H875Y) with Y875H
Experimental: as §1, §2, §3
PC-3 cells were transiently transfected with plasmid expressing wild type human AR and MMTV-Luc. […] RLU, relative luciferase units, were normalized to that of 0.1 nM DHT alone.

T877A mutated AR = target: T3, T877A mutated AR (Homo sapiens, UniProt P10275, T878A); test: Luciferase assay for AR transactivation, T877A AR, PC-3 cells; assay type: cell-based
T3 sequence (P10275 1-920 T878A): T1 sequence (P10275 1-920 H875Y) with Y875H, T878A
Experimental: as §1, §2, §3

MDA PCa 2b cells = test: MTT cell growth inhibition, MDA PCa 2b;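 also: MDA PCa 2b prostate cancer cells in BRFF-HPC1 with 20% FBS, exposed to compounds for 72 h, viable-cell MTT formazan read as absorbance at 600 nm, 0.5% DMSO vehicle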
Experimental: (§4) MDA PCa 2b was seeded at the same density in medium BRFF-HPC1 (Athena Enzyme Systems, Baltimore, Md., USA) supplemented with 20% FBS. After overnight incubation, the medium was changed to a fresh medium containing different concentrations of test compounds diluted from stock DMSO solution. The final concentration of DMSO is 0.5%. After 72 h of incubation with test compounds, 20 μL of 3-(4,5-dimethyl thiazol-2-yl)-2,5-diphenyltetrazolium bromide (MTT) solution (5 mg/mL in PBS) were added to each well and incubated further for 2 h. Next, the supernatant was aspirated and the MTT formazan formed by metabolically viable cells was dissolved in 100 μL of isopropanol. The plates were mixed for 30 min, and the absorbance was measured at 600 nm on a plate reader (FLUOstar OPTIMA, BMG LabTech). All samples were in triplicate. The IC50 values were determined from dose-response curves by nonlinear regression using PRISM v5.00 (GraphPad Software Inc, La Jolla, Calif., USA).
(§5) The in vitro cytotoxicity of 1-20 were evaluated by MTT assays in a panel of prostate cancer cell lines, including LNCaP, MDA PCa 2b, 22Rv1, C4-2B and PC-3.

C4-2B cells = test: MTT cell growth inhibition, C4-2B;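 also: cells treated with a dilution series for 72 h, then MTT added and absorbance read at 600 nm, IC50 fitted from dose-response curves by nonlinear regression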; conditions: Part D table, 72 hours, I.A. = Inactive
Experimental: as §4, §5

22Rv1 cells = test: MTT cell growth inhibition, 22Rv1
Experimental: as §4, §5

PC-3 cells = test: MTT cell growth inhibition, PC-3; conditions: Part D table, 72 hours, I.A. = Inactive
Experimental: as §4, §5

LNCaP cells = test: MTT cell growth inhibition, LNCaP;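 also: MTT formazan absorbance at 600 nm read after 72 h of compound exposure, IC50 fitted by nonlinear regression of dose-response curves, samples run in triplicate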; conditions: Part D table, 72 hours, I.A. = Inactive
[1] = 72 hrs, concentrations up to 50 μM, FIG. 2

Antiandrogenic activity evaluated by luciferase assay in PC-3 cells H874Y (H874Y mutated AR): +
Antiandrogenic activity evaluated by luciferase assay in PC-3 cells WT (wild-type human AR): ++
agonist activity on T877A AR (T877A mutated AR; absence of DHT, PC-3 cells): activated
Antiandrogenic activity evaluated by luciferase assay in PC-3 cells T877A (T877A mutated AR; test compound 1 μM, 0.1 nM DHT): Agonist
Structure (SMILES): CC(C)(O)C(=O)Nc1ccc([N+](=O)[O-])c(C(F)(F)F)c1 [OHF, hydroxyflutamide, reference compound]
growth inhibitory effect on PCa 2b cells (MDA PCa 2b cells; [1]): resistant
IC50 (MDA PCa 2b cells; read-out: Cytotoxicity in prostate cancer cell lines IC50 (μM), PCa-2b, Part D table, MTT, 72 hours): > 50 µM
Cytotoxicity in prostate cancer cell lines IC50 (μM), C4-2B (C4-2B cells): I.A.
growth inhibitory effect on 22Rv1 cells (22Rv1 cells; [1]): resistant
IC50 (22Rv1 cells; read-out: Cytotoxicity in prostate cancer cell lines IC50 (μM), 22Rv1, Part D table, MTT, 72 hours): > 50 µM
Cytotoxicity in prostate cancer cell lines IC50 (μM), PC-3 (PC-3 cells): I.A.
Cytotoxicity in prostate cancer cell lines IC50 (μM), LNCaP (LNCaP cells): I.A.
